Experimental data reported in ChEMBL document CHEMBL2150945, “Synthesis and biological evaluation of novel piperazine derivatives of flavone as potent anti-inflammatory and antimicrobial agent” (2012).
In brackets after ≈: the same amount, converted by molar mass.

Key:
[1] = test system: Salmonella typhimurium; experiment: Ratio of ciprofloxacin MIC to compound MIC for Salmonella typhimurium MTCC 98; type: functional, Salmonella enterica subsp. enterica serovar Typhimurium
[2] = test system: Fusarium solani; experiment: Ratio of miconazole MIC to compound MIC for Fusarium solani MTCC 350; type: functional
[3] = test system: Salmonella typhimurium; experiment: Antibacterial activity against Salmonella typhimurium MTCC 98 after 24 hrs by modified agar well diffusion method; type: functional, Salmonella enterica subsp. enterica serovar Typhimurium; details: Salmonella enterica, MTCC 98, 24 h
[4] = test system: Fusarium solani; experiment: Antifungal activity against Fusarium solani MTCC 350 after 2 to 3 days by modified agar well diffusion method; type: functional
[5] = test system: Staphylococcus aureus; experiment: Antibacterial activity against Staphylococcus aureus MTCC 96 after 24 hrs by modified agar well diffusion method; type: functional; details: MTCC 96, 24 h
[6] = test system: Escherichia coli; experiment: Antibacterial activity against Escherichia coli MTCC 443 after 24 hrs by modified agar well diffusion method; type: functional; details: MTCC 443, 24 h
[7] = test system: THP-1; experiment: Antiinflammatory activity in human PMA-activated THP1 cells assessed as inhibition of LPS-induced IL6 production at 10 uM incubated for 30 mins prior to LPS-challenge measured after 24 hrs by ELISA relative to control; type: functional
[8] = test system: Candida albicans; experiment: Antifungal activity against Candida albicans MTCC 227 after 2 to 3 days by modified agar well diffusion method; type: functional
[9] = test system: Bacillus subtilis; experiment: Antibacterial activity against Bacillus subtilis MTCC 441 after 24 hrs by modified agar well diffusion method; type: functional; details: MTCC 441, 24 h
[10] = test system: Aspergillus niger; experiment: Ratio of miconazole MIC to compound MIC for Aspergillus niger MTCC 281; type: functional
[11] = test system: THP-1; experiment: Antiinflammatory activity in human PMA-activated THP1 cells assessed as inhibition of LPS-induced TNFalpha production at 10 uM incubated for 30 mins prior to LPS-challenge measured after 24 hrs by ELISA relative to control; type: functional
[12] = test system: Aspergillus niger; experiment: Antifungal activity against Aspergillus niger MTCC 281 after 2 to 3 days by modified agar well diffusion method; type: functional
[13] = test system: Aspergillus flavus; experiment: Antifungal activity against Aspergillus flavus MTCC 277 after 2 to 3 days by modified agar well diffusion method; type: functional
[14] = test system: Candida albicans; experiment: Ratio of miconazole MIC to compound MIC for Candida albicans MTCC 227; type: functional
[15] = test system: Escherichia coli; experiment: Ratio of ciprofloxacin MIC to compound MIC for Escherichia coli MTCC 443; type: functional
[16] = test system: Bacillus subtilis; experiment: Ratio of ciprofloxacin MIC to compound MIC for Bacillus subtilis MTCC 441; type: functional
[17] = test system: Staphylococcus aureus; experiment: Ratio of ciprofloxacin MIC to compound MIC for Staphylococcus aureus MTCC 96; type: functional
[18] = test system: Aspergillus flavus; experiment: Ratio of miconazole MIC to compound MIC for Aspergillus flavus MTCC 277; type: functional
[19] = test system: THP-1; experiment: Antiinflammatory activity in human PMA-activated THP1 cells assessed as inhibition of LPS-induced TNFalpha production at 1 uM incubated for 30 mins prior to LPS-challenge measured after 24 hrs by ELISA relative to control; type: functional
[20] = test system: THP-1; experiment: Antiinflammatory activity in human PMA-activated THP1 cells assessed as inhibition of LPS-induced IL6 production at 1 uM incubated for 30 mins prior to LPS-challenge measured after 24 hrs by ELISA relative to control; type: functional

Structure (SMILES) | Ratio [1] | Ratio [2] | MIC [3] [µg/mL] | MIC [4] [µg/mL] | MIC [5] [µg/mL] | MIC [6] [µg/mL] | inhibition at 10 µM [7] [%] | MIC [8] [µg/mL] | MIC [9] [µg/mL] | Ratio [10] | inhibition at 10 µM [11] [%] | MIC [12] [µg/mL] | MIC [13] [µg/mL] | Ratio [14] | Ratio [15] | Ratio [16] | Ratio [17] | Ratio [18] | inhibition at 1 µM [19] [%] | inhibition at 1 µM [20] [%]
COc1cc(OC)c2c(=O)cc(CNC3CCN(Cc4ccccc4)CC3)oc2c1 | 2 | 2 | 15 (≈ 36.7 µM) | 15 (≈ 36.7 µM) | 10 (≈ 24.5 µM) | 10 (≈ 24.5 µM) | 35 | 10 (≈ 24.5 µM) | 10 (≈ 24.5 µM) | 2 | 20 | 10 (≈ 24.5 µM) | 10 (≈ 24.5 µM) | 2 | 2 | 2 | 2 | 2 |  | 
COc1ccc2oc(N3CCN(c4ccccc4)CC3)cc(=O)c2c1 |  |  | 80 (≈ 238 µM) | 80 (≈ 238 µM) | 75 (≈ 223 µM) | 80 (≈ 238 µM) | 60 | 90 (≈ 268 µM) | 50 (≈ 149 µM) |  | 45 | 85 (≈ 253 µM) | 95 (≈ 282 µM) |  |  |  |  |  |  | 
COc1ccc2oc(N3CCN(c4ccccc4)CC3C#N)cc(=O)c2c1 (stereo unspecified) | 2 | 2 | 50 (≈ 138 µM) | 15 (≈ 41.5 µM) | 40 (≈ 111 µM) | 45 (≈ 125 µM) | 0 | 15 (≈ 41.5 µM) | 30 (≈ 83 µM) | 2 | 10 | 10 (≈ 27.7 µM) | 30 (≈ 83 µM) | 2 | 2 | 2 | 2 | 2 |  | 
COc1ccc2oc(N3CCN(c4ncccn4)CC3)cc(=O)c2c1 |  |  | 80 (≈ 236 µM) | 95 (≈ 281 µM) | 80 (≈ 236 µM) | 80 (≈ 236 µM) | 87 | 85 (≈ 251 µM) | 65 (≈ 192 µM) |  | 82 | 70 (≈ 207 µM) | 85 (≈ 251 µM) |  |  |  |  |  |  | 
COc1ccc2oc(N3CCN(Cc4ccccc4)CC3)cc(=O)c2c1 |  |  | 65 (≈ 185 µM) | 45 (≈ 128 µM) | 70 (≈ 200 µM) | 65 (≈ 185 µM) | 0 | 55 (≈ 157 µM) | 55 (≈ 157 µM) |  | 0 | 30 (≈ 85.6 µM) | 65 (≈ 185 µM) |  |  |  |  |  |  | 
CCN1CCN(c2cc(=O)c3cc(OC)ccc3o2)CC1 |  |  |  | 70 (≈ 243 µM) | 90 (≈ 312 µM) |  | 40 | 75 (≈ 260 µM) | 80 (≈ 277 µM) |  | 30 | 60 (≈ 208 µM) | 70 (≈ 243 µM) |  |  |  |  |  |  | 
COc1ccc2oc(N3CCN(C)CC3)cc(=O)c2c1 |  |  | 65 (≈ 237 µM) |  | 50 (≈ 182 µM) | 40 (≈ 146 µM) | 35 | 90 (≈ 328 µM) | 45 (≈ 164 µM) |  | 25 | 90 (≈ 328 µM) |  |  |  |  |  |  |  | 
COc1ccc(N2CCN(c3cc(=O)c4cc(OC)ccc4o3)CC2)cc1 |  |  | 80 (≈ 218 µM) | 85 (≈ 232 µM) | 60 (≈ 164 µM) | 75 (≈ 205 µM) | 83 | 95 (≈ 259 µM) | 45 (≈ 123 µM) |  | 79 | 75 (≈ 205 µM) | 90 (≈ 246 µM) |  |  |  |  |  |  | 
COc1ccc2oc(NCCN3CCCC3)cc(=O)c2c1 | 2 | 2 | 10 (≈ 34.7 µM) | 10 (≈ 34.7 µM) | 20 (≈ 69.4 µM) | 15 (≈ 52 µM) | 20 | 10 (≈ 34.7 µM) | 10 (≈ 34.7 µM) | 2 | 5 | 10 (≈ 34.7 µM) | 15 (≈ 52 µM) | 2 | 2 | 2 | 2 | 2 |  | 
COc1ccc2oc(NC3CCN(Cc4ccccc4)CC3)cc(=O)c2c1 | 2 | 2 | 10 (≈ 27.4 µM) | 10 (≈ 27.4 µM) | 10 (≈ 27.4 µM) | 10 (≈ 27.4 µM) | 15 | 15 (≈ 41.2 µM) | 10 (≈ 27.4 µM) | 2 | 10 | 10 (≈ 27.4 µM) | 15 (≈ 41.2 µM) | 2 | 2 | 2 | 2 | 2 |  | 
COc1cc(OC)c2c(=O)cc(CN3CCN(c4ccccc4)CC3)oc2c1 |  |  | 90 (≈ 237 µM) | 95 (≈ 250 µM) | 90 (≈ 237 µM) | 90 (≈ 237 µM) | 50 | 80 (≈ 210 µM) | 90 (≈ 237 µM) |  | 45 | 90 (≈ 237 µM) | 85 (≈ 223 µM) |  |  |  |  |  |  | 
COc1ccc(N2CCN(Cc3cc(=O)c4c(OC)cc(OC)cc4o3)CC2)cc1 |  |  | 65 (≈ 158 µM) | 75 (≈ 183 µM) | 65 (≈ 158 µM) | 70 (≈ 171 µM) | 93 | 95 (≈ 231 µM) | 40 (≈ 97.4 µM) |  | 85 | 80 (≈ 195 µM) | 85 (≈ 207 µM) |  |  |  |  |  |  | 
COc1cc(OC)c2c(=O)cc(CN3CCN(c4ccccn4)CC3)oc2c1 |  |  |  | 90 (≈ 236 µM) |  |  | 70 | 85 (≈ 223 µM) | 85 (≈ 223 µM) |  | 65 | 95 (≈ 249 µM) | 95 (≈ 249 µM) |  |  |  |  |  |  | 
COc1cc(OC)c2c(=O)cc(CN3CCN(c4ncccn4)CC3)oc2c1 |  |  | 90 (≈ 235 µM) | 65 (≈ 170 µM) |  | 90 (≈ 235 µM) | 93 | 90 (≈ 235 µM) |  |  | 87 | 75 (≈ 196 µM) | 95 (≈ 248 µM) |  |  |  |  |  |  | 
COc1cc(OC)c2c(=O)cc(CN3CCN(C(C)=O)CC3)oc2c1 |  |  | 90 (≈ 260 µM) | 85 (≈ 245 µM) | 80 (≈ 231 µM) | 95 (≈ 274 µM) | 0 | 75 (≈ 217 µM) | 60 (≈ 173 µM) |  | 0 | 60 (≈ 173 µM) | 90 (≈ 260 µM) |  |  |  |  |  |  | 
COc1cc(OC)c2c(=O)cc(CN3CCN(C)CC3)oc2c1 |  |  | 90 (≈ 283 µM) | 75 (≈ 236 µM) | 60 (≈ 188 µM) | 90 (≈ 283 µM) | 0 | 70 (≈ 220 µM) | 45 (≈ 141 µM) |  | 10 | 55 (≈ 173 µM) | 75 (≈ 236 µM) |  |  |  |  |  |  | 
CCN1CCN(Cc2cc(=O)c3c(OC)cc(OC)cc3o2)CC1 |  |  | 70 (≈ 211 µM) | 45 (≈ 135 µM) | 75 (≈ 226 µM) | 70 (≈ 211 µM) | 30 | 55 (≈ 165 µM) | 65 (≈ 196 µM) |  | 20 | 35 (≈ 105 µM) | 60 (≈ 181 µM) |  |  |  |  |  |  | 
COc1cc(OC)c2c(=O)cc(CN3CCOCC3)oc2c1 |  |  |  | 85 (≈ 278 µM) |  |  | 91 | 85 (≈ 278 µM) | 90 (≈ 295 µM) |  | 85 | 80 (≈ 262 µM) | 90 (≈ 295 µM) |  |  |  |  |  |  | 
COc1cc(OC)c2c(=O)cc(CN3CCN(C/C=C/c4ccccc4)CC3)oc2c1 | 2 | 2 | 10 (≈ 23.8 µM) |  | 20 (≈ 47.6 µM) | 15 (≈ 35.7 µM) | 25 | 90 (≈ 214 µM) | 10 (≈ 23.8 µM) | 2 | 10 |  |  | 2 | 2 | 2 | 2 | 2 |  | 
COc1ccc2oc(N3CCOCC3)cc(=O)c2c1 |  |  | 90 (≈ 344 µM) |  | 95 (≈ 364 µM) | 90 (≈ 344 µM) | 84 |  | 75 (≈ 287 µM) |  | 80 | 90 (≈ 344 µM) |  |  |  |  |  |  |  | 
O=C(O)c1cn(C2CC2)c2cc(N3CCNCC3)c(F)cc2c1=O [CIPROFLOXACIN] |  |  | 25 (≈ 75.4 µM) |  |  | 15 (≈ 45.3 µM) |  |  | 25 (≈ 75.4 µM) |  |  |  |  |  |  |  |  |  |  | 
C[C@@H]1C[C@H]2[C@@H]3CCC4=CC(=O)C=C[C@]4(C)[C@@]3(F)[C@@H](O)C[C@]2(C)[C@@]1(O)C(=O)CO [DEXAMETHASONE] |  |  |  |  |  |  |  |  |  |  |  |  |  |  |  |  |  |  | 71 | 84
Clc1ccc(COC(Cn2ccnc2)c2ccc(Cl)cc2Cl)c(Cl)c1 (stereo unspecified) [MICONAZOLE] |  |  |  | 15 (≈ 36 µM) |  |  |  | 25 (≈ 60.1 µM) |  |  |  | 20 (≈ 48.1 µM) | 20 (≈ 48.1 µM) |  |  |  |  |  |  | 
